Values joined by “and” are separate entries in the source; they are usually repeats but may differ in a detail not shown here. Equal values may be shown once. Where a name gives a salt, the structure may show the parent alone.
Columns and labels:
[1] = tested on: stomach mucous membrane blood flow; test: Blood flow increasing activity on stomach mucous membrane (aminopyrin clearance method); format: in vivo, Wistar male rats; conditions: 3 mg/kg intravenous
Experimental: The cardia and pylorus of Wistar male rats (body weight, 250 to 300 g) which fasted 16 hours before abdominal section were ligated under urethane anesthesia, and a cannula was inserted into the preventriculus. In order to keep the stomach in normal state, the cannula was fixed externally and the incised abdomen was closed. Separately, a cannula filed with heparin was inserted into carotid artery.
After operation, the inside of stomach was thoroughly washed with warm physiological saline solution, and 2 ml of a gastric juice (prepared by adjusting a 5% aqueous solution of mannitol to a pH 3.5 with 0.15 N hydrochloric acid, hereinafter the same) was poured into the stomach. Then, aminopyrin was administered via femoral vein at a dose of 30 mg/kg and 30 minutes thereafter aminopyrin was continuously administered at a rate of 6.6 mg/kg/hour. 45 minutes after the commencement of continuous administration of aminopyrin, 2 ml of the gastric juice warmed at 37° C. was poured into the stomach and collected after 15 minutes.
The collection of gastric juice was conducted at 15 minute intervals and 2 ml of the gastric juice was poured into the stomach between the collections. The total volume of gastric juice collected was 5 ml; 2 ml of the gastric juice was first drawn by syringe pump, 2 ml of the gastric juice was poured into the stomach and then drawn, and finally 1 ml of gastric juice was poured into the stomach and then drawn. 2 ml of the gastric juice drawn (5 ml) was presented to quantitative determination.
Sixty minutes after the commencement of continuous administration of aminopyrin, 0.5 ml of blood was drawn from the carotid artery. Thereafter, 0.5 ml of blood was drawn twice (intermediate and end points of the continuous administration of aminopyrin).
The test compound was administered intravenously immediately after the third collection of gastric juice. […]
Then, the amount of aminopyrin in the blood sample and the gastric juice was determined quantitatively and the volume of blood flow in the stomach mucous membrane per gram of the stomach tissue per minute was calculated.

[2] = tested on: blood pressure; test: Anti-hypertensive activity in anesthetized cats; format: in vivo; conditions: 5 to 10 mg/kg via femoral vein; urethane anesthesia
Experimental: Cats weighing 3 to 5 kg were anesthetized by intraperitoneal administration of urethane at a dose of 1.5 g/kg. The test compound was administered through a catheter into a femoral vein and the blood pressure was determined by a pressure transducer through a catheter inserted into the femoral artery.

[3] = tested on: stress ulcer; test: Stress Ulcer (1), water-dipping restriction stress, non-fasted rats tied with steel wire; format: in vivo, Wistar male rats; conditions: 50 mg/kg oral
Experimental: The test compound was administered orally to Wistar male rats (body weight, 200 to 230 g) and 30 minutes thereafter the rats were tied up with a steel wire and dipped in water at 23° C. in a tank to the level of the xiphisternum of rats. After leaving the rats in water for 7 hours, the rats were sacrificed and the stomach was extracted. 10 ml of a 1% formalin solution was injected into the stomach cavity and the stomach was dipped in a 1% formalin solution for 15 minutes to semi-harden the stomach.

[4] = tested on: aspirin-induced ulcer; test: Aspirin Ulcer in pylorus-ligated rats; format: in vivo, Wistar male rats; conditions: for Percent Inhibition / Ulcerous Index: aspirin 100 mg/kg oral; for Ulcerous Index: mean ± SE
Experimental: The pylorus of Wistar male rats (body weight, 230 to 250 g) which fasted for 24 hours was ligated and, immediately thereafter, the test compound was administered into the duodenum. 15 hours thereafter, acetylsalicylic acid (Aspirin) was administered orally at a dose of 100 mg/kg. Seven hours after administration of acetylsalicylic acid, the rats were sacrificed and the gastric juice was collected. the stomach was then worked up in the same manner as above to determine the ulcerous index.

[5] = tested on: gastric secretion; test: Gastric secretion inhibitory activity in pylorus-ligated rats; format: in vivo, Wistar male rats; conditions: for Percent Inhibition (gastric juice) / Percent Inhibition (output secretion) / Amount of Gastric Juice / Amount of Output Secretion: 25 mg/kg into duodenum, 5 h; for Amount of Gastric Juice / Amount of Output Secretion: 10 rats, mean ± SD
Experimental: Five hours after the administration, the rats were sacrificed and gastric juice was collected. The volume and the pH value of the gastric juice and the degree of acid secretion were then determined.

[6] = tested on: stress ulcer; test: Stress Ulcer (2), fasted rats in stress cage dipped in water; format: in vivo, Wistar male rats; conditions: for Percent Inhibition / Ulcerous Index: 25 mg/kg oral, fasted 18 h; for Ulcerous Index: 7 h water immersion at 23° C., 7 rats, mean ± SD
Experimental: The test compound was administered orally to Wistar male rats (body weight, 180 to 200 g) which fasted for 18 hours before testing. 30 minutes thereafter, stress was loaded to the rats in a stress cage by dipping the cage into water at 23° C. to the level of the xiphisternum of rats. After leaving the rats in water for 7 hours, the rats were sacrificed and the stomach was extracted. The stomach was then worked up in the same manner as above to determine the ulcerous index.

[7] = tested on: blood flow in stomach mucous membrane; test: Recovery activity on blood flow decrease in stomach mucous membrane by blood drawing; format: in vivo, Wistar male rats; conditions: 10 mg/kg intravenous
Experimental: Wistar male rats (body weight, 250 to 280 g) fasted for 24 hours and the blood flow in stomach mucous membrane was determined by the aminopyrin clearance method as described above under urethane anesthesia. After determination of blood flow, a blood sample was drawn in an amount equivalent to 3% of the body weight and, 5 minutes thereafter, the blood sample was reinstated. The blood flow was then determined at an interval of 15 minutes. The test compound was administered intravenously 15 minutes after the blood drawing.

| Compound | duration of blood pressure lowering activity [2] | inhibition of ulcer generation (in words) [3] | Percent Inhibition (gastric juice) [5] [%] | Percent Inhibition (output secretion) [5] [%] | Amount of Gastric Juice [5] [mL] | Amount of Output Secretion [5] [μ Eq.] | Percent Inhibition [6] [%] | Ulcerous Index [6] [mm] | also measured |
| --- | --- | --- | --- | --- | --- | --- | --- | --- | --- |
| C=CCN(CC=C)C(C)Cn1cc(-c2ccccc2)c2ccccc2c1=O (stereo not shown) [Compound A, 2-(2-N,N-diallylaminopropyl)-4-phenyl-1(2H)-isoquinolone maleate] | more than 2 hours | inhibit the ulcer generation caused by water-dipping restriction stress |  |  |  |  |  |  | time of maximum percent increase in blood flow [1]: 30 min; stomach mucous membrane blood flow increasing activity (in words) ([1]; 15, 30 and 45 minutes after administration): significance increasing activity on the stomach mucous membrane blood flow; percent increase in blood flow (maximum) ([1]; 30 minutes): about 50%; Percent Inhibition ([3]; 7 h water immersion at 23° C.): 62.2% and 75.5%; Ulcerous Index ([3]; 7 h water immersion at 23° C., 6 rats, mean ± SD): 10.5 ± 6.22 mm and 6.8 ± 3.19 mm; Percent Inhibition ([4]; 10 mg/kg i.d.): 29.41%; Ulcerous Index ([4]; 10 mg/kg i.d.): 42.28 ± 2.56 mm; Percent Inhibition ([4]; 25 mg/kg i.d.): 42.98%; Ulcerous Index ([4]; 25 mg/kg i.d.): 34.15 ± 4.37 mm; Percent Inhibition ([4]; 50 mg/kg i.d.): 57.52%; Ulcerous Index ([4]; 50 mg/kg i.d.): 25.44 ± 3.41 mm; inhibition of aspirin-induced ulcer (in words) ([4]; 10, 25, 50 mg/kg i.d.): inhibits the aspirin-induced ulcer at dose levels of 10, 25, 50 mg/kg, with dependency upon dose |
| C=CCN(CC=C)CC(C)Cn1cc(-c2ccccc2)c2ccccc2c1=O (stereo not shown) [Compound B, 2-(3-N,N-diallylamino-2-methylpropyl)-4-phenyl-1(2H)-isoquinolone hydrochloride] | more than 2 hours | inhibit the ulcer generation caused by water-dipping restriction stress |  |  |  |  |  |  |  |
| CC(C)[N+](C)(CCOC(=O)C1c2ccccc2Oc2ccccc21)C(C)C [Propantheline Bromide] |  |  | 56.5 | 58.8 | 1.46 ± 0.63 | 118.8 ± 63.51 | 51.9 | 14.9 ± 10.67 |  |
| CC(N)Cn1cc(-c2ccccc2)c2ccccc2c1=O.O=C(O)/C=C\C(=O)O (stereo not shown) [Compound C, 2-(2-aminopropyl)-4-phenyl-1(2H)-isoquinolone maleate] |  |  | 54.2 | 56.3 | 1.54 ± 0.58 | 126.0 ± 40.42 | 52.8 | 14.6 ± 8.70 | gastric secretion inhibitory activity (in words) ([5]; compared with propantheline bromide and Cimetidine): substantially equivalent to that of propantheline bromide but higher than that of Cimetidine; stress ulcer inhibitory activity (in words) ([6]; compared with propantheline bromide): substantially equivalent to that of propantheline bromide; recovery activity on blood flow decrease (in words) [7]: significant recovery activity on blood flow decrease in stomach mucous membrane by blood drawing; Blood Flow in Mucous Membrane, 15 min. ([7]; 15 min., 3 rats, mean ± SD): 88.4 ± 36.9%; Blood Flow in Mucous Membrane, 30 min. ([7]; 30 min., 3 rats, mean ± SD): 92.7 ± 23.5%; Blood Flow in Mucous Membrane, 45 min. ([7]; 45 min., 3 rats, mean ± SD): 98.2 ± 10.2%; Blood Flow in Mucous Membrane, 60 min. ([7]; 60 min., 3 rats, mean ± SD): 101.4 ± 8.8%; Blood Flow in Mucous Membrane, 0 ([7]; time 0 (baseline), 3 rats): 100% |
| CN/C(=N/CCSCc1nc[nH]c1C)NC#N [Cimetidine] |  |  | 32.7 | 52.6 | 2.26 ± 0.85 | 136.6 ± 74.19 |  |  |  |

Source: patent US4443607A, “1(2H)-Isoquinolone compounds and acid addition salts thereof” (priority 1981, dated 1984)
